The values that follow come from BindingDB's records for doi:10.1021/jm00163a035 (Sri International, 1990).

As a reminder, the IC50 is the point on the concentration scale where inhibition reaches its midpoint. High values mean weaker potency in that assay, low ones greater potency in that assay.

In this test the target is T1, Dihydrofolate reductase (Homo sapiens, UniProt P00374).
T1 sequence (P00374 whole entry): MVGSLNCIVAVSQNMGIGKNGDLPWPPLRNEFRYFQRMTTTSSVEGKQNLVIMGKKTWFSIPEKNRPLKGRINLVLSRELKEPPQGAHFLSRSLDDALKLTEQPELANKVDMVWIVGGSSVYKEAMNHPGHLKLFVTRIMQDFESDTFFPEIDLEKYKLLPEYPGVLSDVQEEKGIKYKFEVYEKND
Nature of the test: ChEBML_54117. The text has this: Inhibitory activity towards dihydrofolate reductase derived from human manca leukemia cells

For the compound `CCC(Cc1ccc(C(=O)NC(CCC(=O)O)C(=O)O)cc1)c1cnc2nc(N)nc(N)c2n1` (stereo unspecified), the 50% inhibitory concentration (IC50) was found to be 70 nM.
